Measurements as given in PubChem BioAssay AID248 (DTP/NCI, 2004).
“And” between values parts separate entries of the source, which are not always exact repeats. Equal values may be shown once. Inconclusive results and toxic doses are left out. No stated cut-off is given here; in the data, active means T/C of 150% or more; inactive means T/C below 125%.

System: L1210 leukemia ip in BDF1 mice, survival T/C
Experiment: NCI In Vivo Anticancer Drug Screen. Data for tumor model L1210 Leukemia (intraperitoneal) in B6D2F1 (BDF1) mice
Conditions: endpoint: mean survival time, higher = longer survival
Outline: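 Antitumor effect is assessed in tumor-bearing animals. Survival in the compound arm is compared with a vehicle-dosed control arm and expressed as their quotient.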

[1] = dose: 75.0 mg/kg/injection, schedule: Q01DX001 (ip), vehicle: saline
[2] = dose: 150.0 mg/kg/injection, schedule: Q01DX001 (ip), vehicle: saline
[3] = dose: 200.0 mg/kg/injection, schedule: Q01DX001 (ip), vehicle: saline
[4] = dose: 100.0 mg/kg/injection, schedule: Q04DX002 (ip), vehicle: Klucel (hydroxypropylcellulose) (HPC)
[5] = dose: 200.0 mg/kg/injection, schedule: Q04DX002 (ip), vehicle: Klucel (hydroxypropylcellulose) (HPC)
[6] = dose: 400.0 mg/kg/injection, schedule: Q04DX002 (ip), vehicle: Klucel (hydroxypropylcellulose) (HPC)
[7] = dose: 100.0 mg/kg/injection, schedule: Q01DX001 (ip), vehicle: saline
[8] = dose: 400.0 mg/kg/injection, schedule: Q01DX001 (ip), vehicle: saline
[9] = dose: 50.0 mg/kg/injection, schedule: Q01DX001 (ip), vehicle: saline

Measured: T/C

CCC(C)C(NN)C(=O)O (stereo not given)
inactive: dose: 12.0 mg/kg/injection, schedule: Q01DX Z (ip), vehicle: carboxymethylcellulose (CMC) 113 % of control | dose: 25.0 mg/kg/injection, schedule: Q01DX Z (ip), vehicle: carboxymethylcellulose (CMC) 112 % of control | dose: 50.0 mg/kg/injection, schedule: Q01DX Z (ip), vehicle: carboxymethylcellulose (CMC) 110 % of control | dose: 100.0 mg/kg/injection, schedule: Q01DX Z (ip), vehicle: carboxymethylcellulose (CMC) 118 % of control | dose: 200.0 mg/kg/injection, schedule: Q01DX015 (ip), vehicle: carboxymethylcellulose (CMC) 104 % of control

ICC1OC(c2ccccc2)OC2C(CI)OC(c3ccccc3)OC12 (stereo not given)
inactive: dose: 75.0 mg/kg/injection, schedule: Q01DX001 (ip), vehicle: carboxymethylcellulose (CMC) 95 % of control | dose: 150.0 mg/kg/injection, schedule: Q01DX001 (ip), vehicle: carboxymethylcellulose (CMC) 93 % of control | dose: 300.0 mg/kg/injection, schedule: Q01DX001 (ip), vehicle: carboxymethylcellulose (CMC) 88 % of control

COc1cc(-c2c3c(cc4c2OCO4)CC(O)C(C(=O)O)C3)cc(OC)c1OC (stereo not given)
inactive: [1] 95 % of control | [2] 116 % of control | dose: 200.0 mg/kg/injection, schedule: Q01DX001 (ip), vehicle: Klucel (hydroxypropylcellulose) (HPC) 109 % of control | [3] 114 % of control | dose: 300.0 mg/kg/injection, schedule: Q01DX001 (ip), vehicle: Klucel (hydroxypropylcellulose) (HPC) 116 % of control

O=C(Nc1cccc([N+](=O)[O-])c1)Nc1ccccc1F
inactive: dose: 100.0 mg/kg/injection, schedule: Q01DX009 (ip), vehicle: Klucel (hydroxypropylcellulose) (HPC) 91 % of control | [4] 108 % of control | dose: 200.0 mg/kg/injection, schedule: Q01DX009 (ip), vehicle: Klucel (hydroxypropylcellulose) (HPC) 101 % of control | [5] 91 % of control | dose: 400.0 mg/kg/injection, schedule: Q01DX009 (ip), vehicle: Klucel (hydroxypropylcellulose) (HPC) 101 % of control | [6] 94 % of control

O=C1C=CC(=O)N1CN1CCOCC1
inactive: dose: 3.12 mg/kg/injection, schedule: Q01DX009 (ip), vehicle: saline with Tween-80 96 % of control | dose: 6.25 mg/kg/injection, schedule: Q01DX009 (ip), vehicle: saline with Tween-80 96 % of control | dose: 12.5 mg/kg/injection, schedule: Q01DX009 (ip), vehicle: saline with Tween-80 93 % of control

NC(=O)Nc1cc(NC(N)=O)cc(N(CCO)CCO)c1
inactive: dose: 100.0 mg/kg/injection, schedule: Q01DX009 (ip), vehicle: water 97 % of control | dose: 100.0 mg/kg/injection, schedule: Q04DX003 (ip), vehicle: water 102 % of control | dose: 200.0 mg/kg/injection, schedule: Q01DX009 (ip), vehicle: water 97 % of control | dose: 200.0 mg/kg/injection, schedule: Q04DX003 (ip), vehicle: water 102 % of control | dose: 400.0 mg/kg/injection, schedule: Q01DX009 (ip), vehicle: water 103 % of control | dose: 400.0 mg/kg/injection, schedule: Q04DX003 (ip), vehicle: water 104 % of control

O=C(N/N=C/c1ccccc1O)c1cc2ccccc2cc1O
inactive: dose: 100.0 mg/kg/injection, schedule: Q01DX009 (ip), vehicle: saline with Tween-80 91 % of control | dose: 200.0 mg/kg/injection, schedule: Q01DX009 (ip), vehicle: saline with Tween-80 86 % of control | dose: 400.0 mg/kg/injection, schedule: Q01DX009 (ip), vehicle: saline with Tween-80 90 % of control

N/N=C(/C(=O)c1ccccc1)c1ccccc1
inactive: [7] 102 % of control | dose: 100.0 mg/kg/injection, schedule: Q04DX003 (ip), vehicle: saline with Tween-80 100 % of control | [3] 96 % of control | dose: 200.0 mg/kg/injection, schedule: Q04DX003 (ip), vehicle: saline with Tween-80 95 % of control | [8] 96 % of control | dose: 400.0 mg/kg/injection, schedule: Q04DX003 (ip), vehicle: saline with Tween-80 100 % of control

O=c1[nH]nc(CF)c(=O)[nH]1
inactive: dose: 5.0 mg/kg/injection, schedule: Q01DX009 (ip), vehicle: saline 107 % of control | dose: 6.0 mg/kg/injection, schedule: Q01DX009 (ip), vehicle: saline 108 % of control | dose: 10.0 mg/kg/injection, schedule: Q01DX009 (ip), vehicle: saline 116 % of control | dose: 11.0 mg/kg/injection, schedule: Q01DX Z (ip), vehicle: saline 111 % of control | dose: 12.0 mg/kg/injection, schedule: Q01DX009 (ip), vehicle: saline 112 % of control | dose: 14.0 mg/kg/injection, schedule: Q01DX009 (ip), vehicle: saline 104 % of control | dose: 16.0 mg/kg/injection, schedule: Q01DX Z (ip), vehicle: saline 111 % of control | dose: 20.0 mg/kg/injection, schedule: Q01DX009 (ip), vehicle: saline 105 % of control and 124 % of control | dose: 24.0 mg/kg/injection, schedule: Q01DX009 (ip), vehicle: saline 122 % of control | dose: 30.0 mg/kg/injection, schedule: Q01DX009 (ip), vehicle: saline 119 % of control | dose: 40.0 mg/kg/injection, schedule: Q01DX009 (ip), vehicle: saline 116 % of control | [9] 110 % of control | [7] 119 % of control

CNC(CO)C1CCCCC1 (stereo not given)
inactive: [1] 100 % of control | [2] 102 % of control | dose: 300.0 mg/kg/injection, schedule: Q01DX001 (ip), vehicle: saline 101 % of control

CCCCNCCOC(=O)c1ccc(N)cc1
inactive: [1] 106 % of control

O=C(Nc1ccc(Br)c2c(NC(=O)c3ccccc3)ccc(Br)c12)c1ccccc1
inactive: [9] 110 % of control | [7] 101 % of control | [3] 95 % of control | [8] 98 % of control

CCCCNc1nc(N)nc(N)c1[N+](=O)[O-]
inactive: dose: 100.0 mg/kg/injection, schedule: Q04DX003 (ip), vehicle: Klucel (hydroxypropylcellulose) (HPC) 103 % of control | dose: 200.0 mg/kg/injection, schedule: Q04DX003 (ip), vehicle: Klucel (hydroxypropylcellulose) (HPC) 98 % of control | dose: 400.0 mg/kg/injection, schedule: Q04DX003 (ip), vehicle: Klucel (hydroxypropylcellulose) (HPC) 101 % of control

CN(CCNC(=O)C1C(c2ccccc2)C1c1ccccc1)C(=O)C1C(c2ccccc2)C1c1ccccc1 (stereo not given)
inactive: [4] 95 % of control | [5] 89 % of control | [6] 89 % of control

CCCCCCCCCCCC(=O)O.[Cr]
inactive: dose: 100.0 mg/kg/injection, schedule: Q01DX009 (ip), vehicle: other 93 % of control | dose: 100.0 mg/kg/injection, schedule: Q04DX003 (ip), vehicle: other 97 % of control | dose: 200.0 mg/kg/injection, schedule: Q01DX009 (ip), vehicle: other 95 % of control | dose: 200.0 mg/kg/injection, schedule: Q04DX003 (ip), vehicle: other 102 % of control | dose: 400.0 mg/kg/injection, schedule: Q01DX009 (ip), vehicle: other 92 % of control | dose: 400.0 mg/kg/injection, schedule: Q04DX003 (ip), vehicle: other 91 % of control
